Results from PMC7004140, “In vitro hepatotoxicity of Petasites hybridus extract (Ze 339) depends on the concentration, the cytochrome activity of the cell system, and the species used” (Phytotherapy Research, 2019).

How the values were obtained:
Assay type in all cases: in vitro ADME
Details in all cases: petasins 20 μM, 60 min
CYP1A2 (rat) = target: T1, CYP1A2 (rat) (Rattus norvegicus, UniProt P04799); assay: Metabolism by isolated rat CYP1A2
T1 construct: purchased BD Gentest (Switzerland); host or cells: baculovirus expression system
T1 sequence (P04799 1-513): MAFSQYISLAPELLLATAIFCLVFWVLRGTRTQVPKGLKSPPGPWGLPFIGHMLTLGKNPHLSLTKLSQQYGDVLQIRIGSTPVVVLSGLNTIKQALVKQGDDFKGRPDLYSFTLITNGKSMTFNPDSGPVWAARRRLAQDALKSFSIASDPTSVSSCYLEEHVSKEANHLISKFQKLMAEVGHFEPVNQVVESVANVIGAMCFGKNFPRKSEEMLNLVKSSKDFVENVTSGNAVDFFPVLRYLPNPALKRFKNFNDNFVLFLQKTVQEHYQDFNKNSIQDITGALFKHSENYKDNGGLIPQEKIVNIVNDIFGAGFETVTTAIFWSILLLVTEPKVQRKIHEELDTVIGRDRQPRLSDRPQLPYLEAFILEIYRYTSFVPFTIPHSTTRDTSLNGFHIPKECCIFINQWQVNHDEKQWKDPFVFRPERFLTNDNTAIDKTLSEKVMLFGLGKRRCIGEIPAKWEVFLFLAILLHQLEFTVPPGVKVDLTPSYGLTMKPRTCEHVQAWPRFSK
Excerpt: (§1) The metabolism of petasin, isopetasin, and neopetasin was investigated using three different S9 fractions originating from three different species (isolated from rat, dog, and human liver homogenates containing cytochrome P450 isoforms) and isolated cytochromes of two different species (human and rat; rat analogues of the respective human cytochromes were used). For the expression of the different cytochromes, a baculovirus expression system was used according to supplier's manual. The S9 fractions or respectively single P450 cytochromes were used to mimic the liver metabolism by in vitro incubation.
(§2) The assay was carried out in triplicate in 1.5 ml glass vials with a final concentration of 20 μM of petasin, isopetasin, and neopetasin. The incubation was performed in a 37°C warm water bath. S9 fractions were thawed slowly on ice. […]
(§3) A mixture of NADPH regeneration systems A (20‐fold) and B (100‐fold), phosphate buffer, and H2O was added, preincubated at 37°C, and shaken gently for 5 min. […] The supernatant was transferred to high‐performance liquid chromatography vials and analyzed by ultra‐performance liquid chromatography mass spectrometry (UPLC/MS). […]

CYP3A2 (rat) = target: T2, CYP3A2 (rat) (Rattus norvegicus, UniProt P05183); assay: Metabolism by isolated rat CYP3A2
T2 construct: purchased BD Gentest (Switzerland); host or cells: baculovirus expression system
T2 sequence (P05183 1-504): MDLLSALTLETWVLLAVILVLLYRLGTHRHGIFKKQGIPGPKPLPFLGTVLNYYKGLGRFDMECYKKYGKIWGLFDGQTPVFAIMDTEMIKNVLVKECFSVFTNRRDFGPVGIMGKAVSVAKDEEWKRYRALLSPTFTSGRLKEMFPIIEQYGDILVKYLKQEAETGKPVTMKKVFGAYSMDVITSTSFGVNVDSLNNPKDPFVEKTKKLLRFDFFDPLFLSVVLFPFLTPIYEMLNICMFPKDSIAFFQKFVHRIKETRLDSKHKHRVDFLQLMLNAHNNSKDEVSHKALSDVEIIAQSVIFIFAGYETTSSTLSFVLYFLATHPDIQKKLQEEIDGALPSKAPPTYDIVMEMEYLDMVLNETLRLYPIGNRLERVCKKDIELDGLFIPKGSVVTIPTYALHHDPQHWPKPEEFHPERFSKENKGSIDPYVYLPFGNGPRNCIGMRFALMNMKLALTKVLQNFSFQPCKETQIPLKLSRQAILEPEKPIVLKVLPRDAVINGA
Excerpt: as §1, §2, §3

CYP2D6 (human) = target: T3, CYP2D6 (human) (Homo sapiens, UniProt P10635); assay: Metabolism by isolated human CYP2D6
T3 construct: purchased BD Gentest (Switzerland); host or cells: baculovirus expression system
Excerpt: as §1, §2, §3

CYP2C9 (human) = target: T4, CYP2C9 (human) (Homo sapiens, UniProt P11712); assay: Metabolism by isolated human CYP2C9
T4 construct: purchased BD Gentest (Switzerland); host or cells: baculovirus expression system
Excerpt: as §1, §2, §3

CYP3A1 (rat) = target: T5, CYP3A1 (rat) (Rattus norvegicus, UniProt P04800); assay: Metabolism by isolated rat CYP3A1
T5 construct: purchased BD Gentest (Switzerland); host or cells: baculovirus expression system
T5 sequence (P04800 1-504): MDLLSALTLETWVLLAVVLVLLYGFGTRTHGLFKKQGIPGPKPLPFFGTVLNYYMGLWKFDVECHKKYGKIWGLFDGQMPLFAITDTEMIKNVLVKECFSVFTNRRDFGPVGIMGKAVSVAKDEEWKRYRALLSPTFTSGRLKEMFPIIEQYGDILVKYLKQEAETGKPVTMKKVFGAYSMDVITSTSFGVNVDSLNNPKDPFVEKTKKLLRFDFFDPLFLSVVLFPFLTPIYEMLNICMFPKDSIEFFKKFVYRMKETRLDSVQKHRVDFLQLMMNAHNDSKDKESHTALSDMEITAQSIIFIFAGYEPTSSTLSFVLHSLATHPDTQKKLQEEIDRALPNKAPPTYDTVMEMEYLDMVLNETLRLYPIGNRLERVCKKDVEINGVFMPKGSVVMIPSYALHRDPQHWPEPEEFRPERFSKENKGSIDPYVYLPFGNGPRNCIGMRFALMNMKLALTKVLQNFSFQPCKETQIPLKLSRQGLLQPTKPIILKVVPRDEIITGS
Excerpt: as §1, §2, §3

T4 sequence (P11712 whole entry): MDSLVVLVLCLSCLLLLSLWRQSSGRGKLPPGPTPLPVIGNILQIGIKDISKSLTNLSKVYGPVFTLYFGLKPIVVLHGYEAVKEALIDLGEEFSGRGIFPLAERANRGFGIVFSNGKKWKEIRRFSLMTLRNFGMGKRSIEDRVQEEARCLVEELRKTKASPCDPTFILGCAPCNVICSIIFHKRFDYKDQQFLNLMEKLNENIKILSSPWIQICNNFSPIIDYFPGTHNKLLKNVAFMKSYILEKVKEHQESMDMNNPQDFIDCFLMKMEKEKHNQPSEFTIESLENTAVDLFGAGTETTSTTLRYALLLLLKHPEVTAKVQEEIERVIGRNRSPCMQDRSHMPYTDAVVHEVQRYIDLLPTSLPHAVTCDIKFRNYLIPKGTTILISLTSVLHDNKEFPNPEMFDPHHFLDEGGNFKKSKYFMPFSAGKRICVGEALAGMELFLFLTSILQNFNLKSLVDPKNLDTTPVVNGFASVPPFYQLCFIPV
T3 sequence (P10635 whole entry): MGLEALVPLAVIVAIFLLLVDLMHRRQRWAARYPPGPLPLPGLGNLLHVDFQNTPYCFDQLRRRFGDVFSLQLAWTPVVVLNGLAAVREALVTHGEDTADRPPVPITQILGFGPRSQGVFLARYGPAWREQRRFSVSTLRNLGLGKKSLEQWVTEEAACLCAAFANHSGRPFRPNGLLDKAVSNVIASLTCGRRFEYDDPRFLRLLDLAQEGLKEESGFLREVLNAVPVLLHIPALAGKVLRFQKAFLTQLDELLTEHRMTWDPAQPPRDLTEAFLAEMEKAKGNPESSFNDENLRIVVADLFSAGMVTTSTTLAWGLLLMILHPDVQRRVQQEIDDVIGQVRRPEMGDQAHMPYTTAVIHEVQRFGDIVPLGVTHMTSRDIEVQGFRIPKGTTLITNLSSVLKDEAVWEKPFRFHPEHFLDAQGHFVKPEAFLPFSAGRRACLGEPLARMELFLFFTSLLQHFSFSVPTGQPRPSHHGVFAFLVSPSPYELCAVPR

Row | extent of metabolism by CYP1A2 (rat) (CYP1A2 (rat)) [%] | extent of metabolism by CYP3A2 (rat) (CYP3A2 (rat)) [%] | extent of metabolism by CYP2D6 (human) (CYP2D6 (human)) [%] | extent of metabolism by CYP2C9 (human) (CYP2C9 (human)) [%] | extent of metabolism by CYP3A1 (rat) (CYP3A1 (rat)) [%] | Compound
1 | < 1 | 73 |  |  |  | C/C=C(/C)C(=O)O[C@@H]1CCC2=CC(=O)C(=C(C)C)C[C@]2(C)[C@H]1C [isopetasin]
2 | 43 |  | 80.2 | 51 | 37 | C=C(C)[C@@H]1C[C@@]2(C)C(=CC1=O)CC[C@@H](OC(=O)/C(C)=C\C)[C@@H]2C [petasin]
3 |  | 46 |  |  | 78 | C=C(C)[C@H]1C[C@@]2(C)C(=CC1=O)CC[C@@H](OC(=O)/C(C)=C\C)[C@@H]2C [neopetasin]
